Results taken from patent US5994334A, “Androgen synthesis inhibitors” (priority 1997, dated 1999).

What was measured:
17α-hydroxylase = conditions: [3H]-progesterone substrate; read-out: IC50 17α-hydroxylase (Potter et al.); cited from earlier work
C17,20-lyase = conditions: [3H]-progesterone substrate; read-out: IC50 C17,20-lyase (Potter et al.); cited from earlier work
5α-reductase = conditions: cited from earlier work
[1] = tested on: breast cancers in postmenopausal patients; conditions: human, in vivo; cited from earlier work
[2] = biological target: human androgen receptor (AR) (Homo sapiens, UniProt P10275); experiment: Androgen receptor-mediated gene transcription, wild-type AR (luciferase, CV1 cells); assay type: cell-based; conditions: against DHT stimulation
[3] = tested on: mutant AR which is expressed in LNCaP cells; experiment: Androgen receptor-mediated gene transcription, mutant AR of LNCaP cells (luciferase, CV1 cells); assay type: cell-based, human
[4] = tested on: LNCaP human prostatic cancer cell line; experiment: Androgen-dependent growth of LNCaP cells; conditions: for stimulation of LNCaP cell proliferation (in words): 0.1 nM testosterone, hydroxyflutamide 0.3-1 μM
Experimental: The ability of various inhibitors to reverse the stimulatory effect of testosterone on the growth of the LNCaP human prostatic cancer cell line was tested by comparing cell number in wells treated for 9 days with either drug vehicle only (control), 0.1 nM testosterone only, or 0.1 nM testosterone with inhibitor at 0.3, 1, 2.5, or 5 μM.

rat 17α-hydroxylase = rat 17α-hydroxylase (Rattus norvegicus, UniProt P11715); experiment: Inhibition kinetics of rat 17α-hydroxylase, progesterone substrate; assay type: biochemical
Excerpt: (§1) Studies in normal male rats have been carried out with 4-pregnen-3-one-20β-carboxaldehyde (I-16) (Li et al., 1992) and with its 20-carboxaldoxime (I-23)(Li et al., 1995).

rat C17,20-lyase = rat C17,20-lyase (Rattus norvegicus, UniProt P11715); experiment: Inhibition kinetics of rat C17,20-lyase, 17α-hydroxyprogesterone substrate; assay type: biochemical; conditions: 17α-hydroxyprogesterone as substrate; vs. Km 76 nM
Excerpt: as §1

normal male rats = experiment: In vivo studies in normal male rats: hormone levels; set-up: species or system rat
Excerpt: as §1

[5] = tested on: rat 17α-hydroxylase/C17,20-lyase; experiment: Inhibition of rat 17α-hydroxylase/C17,20-lyase; assay type: biochemical
Excerpt: as §1

[6] = biological target: T1, Human Prostatic 5α-Reductase (Homo sapiens, UniProt P31213); experiment: biochemical
T1 sequence (P31213 1-254): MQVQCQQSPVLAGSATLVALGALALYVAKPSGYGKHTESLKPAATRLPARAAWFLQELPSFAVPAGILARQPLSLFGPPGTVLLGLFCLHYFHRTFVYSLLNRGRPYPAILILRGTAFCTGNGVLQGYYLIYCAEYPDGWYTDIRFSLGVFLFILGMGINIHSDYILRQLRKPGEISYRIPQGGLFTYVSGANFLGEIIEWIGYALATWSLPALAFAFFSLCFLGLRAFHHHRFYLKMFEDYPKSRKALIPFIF
Experimental: (§2) The 5α-reductase assay is performed by incubating human prostatic microsomes (approx. 0.6 mg protein in 0.5 ml phosphate buffer) with [7-^3 H]testosterone (10 mM. 6×10^5 dpm) with a NADPH generating system (NADP 0.65 mM; glucose-6-phosphate 7.1 mM; glucose-6-phosphate dehydrogenase 2.5 IU in 100 μl phosphate buffer) and candidate inhibitors at concentrations of 10 nM and 100 nM under oxygen for 30 min at 37° C. […] The steroids are extracted with ether and separated by chromatography on TLC (chloroform:ether 80:20). […] The steroids are scraped from the plate and radioactivity measured.

[7] = biological target: T1, Human Prostatic 5α-Reductase; experiment: Inhibition of human prostatic 5α-reductase (prostatic microsomes, [3H]testosterone)
Experimental: as §2

[8] = in vivo; cited from earlier work
[9] = tested on: human prostatic tissue (BPH or prostate cancer); experiment: Prostate tissue in histoculture, DNA synthesis ([3H]-thymidine uptake); conditions: inhibitor 1 μM; testosterone 1 μM; FIG. 1
Experimental: We recently developed a histoculture method to evaluate the growth inhibiting properties of the compounds on human prostatic tissue. […] The tissue samples were then incubated for 3 days in fresh medium/treatment containing 2 μCi/ml [^3 H]-thymidine. Tissue was then digested and DNA extracted. For each sample, [^3 H]-thymidine uptake was normalized to DNA content. […] This finding is consistent with the compound acting as an antiandrogen. None of the compounds produced an independent effect on DNA synthesis in the absence of added androgens.

[10] = tested on: patients with prostatic cancer; conditions: combined with GnRH or orchidectomy vs GnRH agonist or orchidectomy alone; cited from earlier work
mutant androgen receptor = conditions: cited from earlier work
[11] = 50 mg/kg/day sc, 21 days, vs control
[12] = 50 mg/kg/day sc, 21 days, vs vehicle

rat 17α-hydroxylase, sequence (P11715 whole entry): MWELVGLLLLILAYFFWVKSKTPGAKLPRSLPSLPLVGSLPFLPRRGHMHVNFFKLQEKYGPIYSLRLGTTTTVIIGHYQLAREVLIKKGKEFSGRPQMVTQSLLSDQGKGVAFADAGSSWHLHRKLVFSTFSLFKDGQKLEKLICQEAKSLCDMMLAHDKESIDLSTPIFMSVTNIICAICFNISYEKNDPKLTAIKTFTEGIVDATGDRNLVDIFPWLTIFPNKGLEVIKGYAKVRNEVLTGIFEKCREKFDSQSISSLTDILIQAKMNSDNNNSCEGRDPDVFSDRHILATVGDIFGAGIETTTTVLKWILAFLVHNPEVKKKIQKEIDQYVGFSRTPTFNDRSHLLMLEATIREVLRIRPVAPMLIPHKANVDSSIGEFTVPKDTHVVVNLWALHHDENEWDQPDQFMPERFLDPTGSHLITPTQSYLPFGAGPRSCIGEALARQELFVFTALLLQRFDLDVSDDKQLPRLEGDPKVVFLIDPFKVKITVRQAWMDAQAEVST
rat C17,20-lyase, sequence (P11715 whole entry): as above
human androgen receptor (AR), sequence (P10275 whole entry): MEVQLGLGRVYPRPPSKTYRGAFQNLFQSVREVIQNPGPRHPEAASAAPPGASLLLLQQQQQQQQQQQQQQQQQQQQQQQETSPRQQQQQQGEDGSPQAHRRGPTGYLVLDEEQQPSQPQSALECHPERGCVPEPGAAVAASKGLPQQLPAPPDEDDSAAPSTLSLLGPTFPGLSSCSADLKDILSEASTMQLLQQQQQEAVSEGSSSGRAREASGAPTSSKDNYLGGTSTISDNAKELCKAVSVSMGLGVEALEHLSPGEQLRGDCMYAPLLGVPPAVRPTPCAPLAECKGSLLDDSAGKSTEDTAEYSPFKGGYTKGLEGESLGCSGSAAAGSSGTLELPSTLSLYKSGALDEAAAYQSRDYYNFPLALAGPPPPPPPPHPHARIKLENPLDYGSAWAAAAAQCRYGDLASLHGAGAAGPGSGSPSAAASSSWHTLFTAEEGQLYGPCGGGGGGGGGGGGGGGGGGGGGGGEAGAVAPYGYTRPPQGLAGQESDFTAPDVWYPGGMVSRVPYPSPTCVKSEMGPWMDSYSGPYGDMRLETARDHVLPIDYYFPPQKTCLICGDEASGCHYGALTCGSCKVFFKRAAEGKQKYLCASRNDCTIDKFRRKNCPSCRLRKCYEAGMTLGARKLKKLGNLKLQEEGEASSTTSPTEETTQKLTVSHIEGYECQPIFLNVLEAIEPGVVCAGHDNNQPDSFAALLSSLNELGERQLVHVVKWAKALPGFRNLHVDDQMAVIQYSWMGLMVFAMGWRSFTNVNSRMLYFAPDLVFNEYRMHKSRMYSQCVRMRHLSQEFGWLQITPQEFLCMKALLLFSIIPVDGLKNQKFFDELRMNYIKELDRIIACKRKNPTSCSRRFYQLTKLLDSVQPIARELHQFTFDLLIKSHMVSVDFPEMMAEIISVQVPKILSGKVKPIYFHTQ

## C[C@]12CC[C@H](O)CC1=CC[C@@H]1[C@@H]2CC[C@]2(C)C(c3cccnc3)=CC[C@@H]12 [CB7598, 17-(3'-pyridyl)androsta-5,16-diene-3-ol]
17α-hydroxylase
  IC50: 4 nM
C17,20-lyase
  IC50: 2.9 nM
5α-reductase
  inhibition of 5α-reductase, literature (in words): no activity

## C[C@]12CCC(=O)C(O)=C1CC[C@@H]1[C@@H]2CC[C@]2(C)C(=O)CC[C@@H]12 [Compound 4-OHA, 4-hydroxyandrostene-3,17-dione]
[1]
  side effects (in words): without significant side effects

## C[C@H](C=NO)[C@H]1CC[C@H]2[C@@H]3CCC4=CC(=O)CC[C@]4(C)[C@H]3CC[C@]12C [Compound I-23, 3-oxo-4-pregnene-20β-carboxaldehyde oxime]
[2]
  antagonism of wild-type AR (in words): dose-dependent antagonism
[3]
  agonism/antagonism at mutant AR of LNCaP cells (in words): agonists
[4]; 0.03 nM DHT
  reversal of DHT-stimulated LNCaP growth (in words): stimulation of growth above the level produced by DHT
[4]
  stimulation of LNCaP cell proliferation (in words): stimulated cell proliferation
Rat 17α-hydroxylase
  Ki: 74 nM
Rat C17,20-lyase
  Ki: 18 nM
Normal male rats; [11]
  decrease of prostatic DHT: 44%
  decrease of prostatic testosterone: 60%
  serum LH concentration (in words): unchanged
Normal male rats; [12]
  reduction of serum testosterone: 65%
  reduction of testicular testosterone: 59%
Normal male rats; rat
  reduction of testosterone and DHT levels in serum, testicular and prostatic tissues (in words): significantly reducing testosterone and DHT levels
[5]
  inhibition of rat 17α-hydroxylase/C17,20-lyase (in words): inhibit rat 17α-hydroxylase/C17,20 -lyase
[6]
  Ki: 1.4 nM
[7]; IC50 5α-reductase, Table 2
  IC50: 106 nM
[7]; NI = no inhibition
  inhibition of 5α-reductase (in words): potent inhibition of 5α-reductase
[7]; read-out: % Inhibition of 5α-reductase, [I] 10 nM
  inhibition at 0.01 µM: 14.7%
[7]; read-out: % Inhibition of 5α-reductase, [I] 100 nM
  inhibition at 0.1 µM: 85.8%

## CC(=O)[C@H]1CC[C@H]2[C@@H]3CCC4=CC(=O)CC[C@]4(C)[C@H]3CC[C@]12C [Progesterone]
5α-reductase
  inhibition of 5α-reductase, literature (in words): potent 5α-reductase inhibitor
[8]
  metabolism and oral activity (in words): rapid metabolism in the body and lack of oral activity

## CC(C)C(=O)Nc1ccc([N+](=O)[O-])c(C(F)(F)F)c1 [flutamide, reference compound]
[9]
  reversal of testosterone-stimulated DNA synthesis (in words), 1 μM: almost complete reversal
[10]
  progression-free survival (in words): increased progression-free survival time

## CC(C)(O)C(=O)Nc1ccc([N+](=O)[O-])c(C(F)(F)F)c1 [hydroxyflutamide, reference compound]
[4]
  stimulation of LNCaP cell proliferation (in words): stimulated cell proliferation
Mutant androgen receptor
  effect on mutant AR / prostatic cell growth (in words): agonist activity for the mutant androgen receptor of LNCaP cells
